Columns and labels:
Test in all cases: Test C pre/postemergence
Format in all cases: in vivo
[1] = tested on: Surinam grass (Brachiaria decumbens); settings: Postemergence; for Surinam Grass plant response rating: scale 0 to 100 (0 no effect, 100 complete control); for Plant response rating, Surinam Grass: scale 0 to 100
Outline: (§1)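 Visual injury ratings, 0 (no effect) to 100 (complete control), made 12 to 14 days after treatment by comparison with untreated controls. Greenhouse plants received test chemical in a surfactant-containing non-phytotoxic solvent, either preemergence on planted seeds or postemergence at the 1- to 4-leaf stage.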

[2] = tested on: bermudagrass (Cynodon dactylon); settings: Postemergence; for Bermudagrass plant response rating: scale 0 to 100 (0 no effect, 100 complete control); for Plant response rating, Bermudagrass: scale 0 to 100
Outline: as §1

[3] = tested on: crabgrass (Digitaria sanguinalis); settings: Postemergence; for Crabgrass plant response rating: scale 0 to 100 (0 no effect, 100 complete control); for Plant response rating, Crabgrass: scale 0 to 100
Outline: as §1

[4] = tested on: giant foxtail (Setaria faberii); settings: Postemergence; for Foxtail, Giant plant response rating: scale 0 to 100 (0 no effect, 100 complete control); for Plant response rating, Foxtail, Giant: scale 0 to 100
Outline: as §1

[5] = tested on: goosegrass (Eleusine indica); settings: Postemergence; for Goosegrass plant response rating: scale 0 to 100 (0 no effect, 100 complete control); for Plant response rating, Goosegrass: scale 0 to 100
Outline: as §1

[6] = tested on: johnsongrass (Sorghum halepense); settings: Postemergence; for Johnsongrass plant response rating: scale 0 to 100 (0 no effect, 100 complete control); for Plant response rating, Johnsongrass: scale 0 to 100
Outline: as §1

[7] = tested on: kochia (Kochia scoparia); settings: Postemergence; for Kochia plant response rating: scale 0 to 100 (0 no effect, 100 complete control); for Plant response rating, Kochia: scale 0 to 100
Outline: as §1

[8] = tested on: morningglory (Ipomoea coccinea); settings: Postemergence; for Morningglory plant response rating: scale 0 to 100 (0 no effect, 100 complete control); for Plant response rating, Morningglory: scale 0 to 100
Outline: as §1

[9] = tested on: pigweed (Amaranthus retroflexus); settings: Postemergence; for Pigweed plant response rating: scale 0 to 100 (0 no effect, 100 complete control); for Plant response rating, Pigweed: scale 0 to 100
Outline: as §1

[10] = tested on: soybean (Glycine max); settings: Postemergence; for Soybean plant response rating: scale 0 to 100 (0 no effect, 100 complete control); for Plant response rating, Soybean: scale 0 to 100
Outline: as §1

[11] = tested on: woolly cupgrass (Eriochloa villosa); settings: Postemergence; for Cupgrass, Woolly plant response rating: scale 0 to 100 (0 no effect, 100 complete control); for Plant response rating, Cupgrass, Woolly: scale 0 to 100
Outline: as §1

CC(=O)NN=Cc1nc(C2CC2)nc(N)c1Br [Compound 51]
Surinam Grass plant response rating ([1]; 62 g ai/ha): 0 | Surinam Grass plant response rating ([1]; 125 g ai/ha): 0 | Plant response rating, Surinam Grass ([1]; 250 g ai/ha): 0 | Plant response rating, Surinam Grass ([1]; 500 g ai/ha): 0 | Bermudagrass plant response rating ([2]; 62 g ai/ha): 0 | Bermudagrass plant response rating ([2]; 125 g ai/ha): 0 | Plant response rating, Bermudagrass ([2]; 250 g ai/ha): 0 | Plant response rating, Bermudagrass ([2]; 500 g ai/ha): 0 | Crabgrass plant response rating ([3]; 62 g ai/ha): 0 | Crabgrass plant response rating ([3]; 125 g ai/ha): 0 | Plant response rating, Crabgrass ([3]; 250 g ai/ha): 0 | Plant response rating, Crabgrass ([3]; 500 g ai/ha): 45 | Foxtail, Giant plant response rating ([4]; 62 g ai/ha): 0 | Foxtail, Giant plant response rating ([4]; 125 g ai/ha): 0 | Plant response rating, Foxtail, Giant ([4]; 250 g ai/ha): 0 | Plant response rating, Foxtail, Giant ([4]; 500 g ai/ha): 0 | Goosegrass plant response rating ([5]; 62 g ai/ha): 0 | Goosegrass plant response rating ([5]; 125 g ai/ha): 0 | Plant response rating, Goosegrass ([5]; 250 g ai/ha): 0 | Plant response rating, Goosegrass ([5]; 500 g ai/ha): 0 | Johnsongrass plant response rating ([6]; 62 g ai/ha): 0 | Plant response rating, Johnsongrass ([6]; 250 g ai/ha): 0 | Plant response rating, Johnsongrass ([6]; 500 g ai/ha): 0 | Kochia plant response rating ([7]; 62 g ai/ha): 15 | Kochia plant response rating ([7]; 125 g ai/ha): 60 | Plant response rating, Kochia ([7]; 250 g ai/ha): 85 | Plant response rating, Kochia ([7]; 500 g ai/ha): 95 | Morningglory plant response rating ([8]; 62 g ai/ha): 80 | Morningglory plant response rating ([8]; 125 g ai/ha): 80 | Plant response rating, Morningglory ([8]; 250 g ai/ha): 85 | Plant response rating, Morningglory ([8]; 500 g ai/ha): 100 | Pigweed plant response rating ([9]; 62 g ai/ha): 65 | Pigweed plant response rating ([9]; 125 g ai/ha): 70 | Plant response rating, Pigweed ([9]; 250 g ai/ha): 80 | Plant response rating, Pigweed ([9]; 500 g ai/ha): 85 | Soybean plant response rating ([10]; 62 g ai/ha): 75 | Soybean plant response rating ([10]; 125 g ai/ha): 95 | Plant response rating, Soybean ([10]; 250 g ai/ha): 95 | Plant response rating, Soybean ([10]; 500 g ai/ha): 95 | Cupgrass, Woolly plant response rating ([11]; 62 g ai/ha): 0 | Cupgrass, Woolly plant response rating ([11]; 125 g ai/ha): 0 | Plant response rating, Cupgrass, Woolly ([11]; 250 g ai/ha): 0 | Plant response rating, Cupgrass, Woolly ([11]; 500 g ai/ha): 0

Nc1nc(-c2ccc(Br)cc2)nc(C(=O)O)c1Br [Compound 136]
Plant response rating (scale of 0 to 100), Surinam Grass ([1]; 16 g ai/ha): 55 | Plant response rating (scale of 0 to 100), Surinam Grass ([1]; 31 g ai/ha): 65 | Plant response rating (scale of 0 to 100), Surinam Grass ([1]; 62 g ai/ha): 65 | Surinam Grass plant response rating ([1]; 125 g ai/ha): 70 | Plant response rating (scale of 0 to 100), Bermudagrass ([2]; 16 g ai/ha): 75 | Plant response rating (scale of 0 to 100), Bermudagrass ([2]; 31 g ai/ha): 80 | Bermudagrass plant response rating ([2]; 62 g ai/ha): 80 | Bermudagrass plant response rating ([2]; 125 g ai/ha): 85 | Plant response rating (scale of 0 to 100), Crabgrass ([3]; 16 g ai/ha): 60 | Plant response rating (scale of 0 to 100), Crabgrass ([3]; 31 g ai/ha): 75 | Plant response rating (scale of 0 to 100), Crabgrass ([3]; 62 g ai/ha): 75 | Crabgrass plant response rating ([3]; 125 g ai/ha): 75 | Plant response rating (scale of 0 to 100), Foxtail, Giant ([4]; 16 g ai/ha): 65 | Plant response rating (scale of 0 to 100), Foxtail, Giant ([4]; 31 g ai/ha): 75 | Plant response rating (scale of 0 to 100), Foxtail, Giant ([4]; 62 g ai/ha): 75 | Foxtail, Giant plant response rating ([4]; 125 g ai/ha): 85 | Plant response rating (scale of 0 to 100), Goosegrass ([5]; 16 g ai/ha): 50 | Plant response rating (scale of 0 to 100), Goosegrass ([5]; 31 g ai/ha): 65 | Plant response rating (scale of 0 to 100), Goosegrass ([5]; 62 g ai/ha): 75 | Goosegrass plant response rating ([5]; 125 g ai/ha): 80 | Plant response rating (scale of 0 to 100), Johnsongrass ([6]; 16 g ai/ha): 60 | Plant response rating (scale of 0 to 100), Johnsongrass ([6]; 31 g ai/ha): 85 | Plant response rating (scale of 0 to 100), Johnsongrass ([6]; 62 g ai/ha): 85 | Johnsongrass plant response rating ([6]; 125 g ai/ha): 95 | Plant response rating (scale of 0 to 100), Kochia ([7]; 16 g ai/ha): 75 | Plant response rating (scale of 0 to 100), Kochia ([7]; 31 g ai/ha): 80 | Plant response rating (scale of 0 to 100), Kochia ([7]; 62 g ai/ha): 90 | Kochia plant response rating ([7]; 125 g ai/ha): 90 | Plant response rating (scale of 0 to 100), Morningglory ([8]; 16 g ai/ha): 65 | Plant response rating (scale of 0 to 100), Morningglory ([8]; 31 g ai/ha): 85 | Plant response rating (scale of 0 to 100), Morningglory ([8]; 62 g ai/ha): 90 | Morningglory plant response rating ([8]; 125 g ai/ha): 100 | Plant response rating (scale of 0 to 100), Pigweed ([9]; 16 g ai/ha): 90 | Plant response rating (scale of 0 to 100), Pigweed ([9]; 31 g ai/ha): 100 | Plant response rating (scale of 0 to 100), Pigweed ([9]; 62 g ai/ha): 100 | Pigweed plant response rating ([9]; 125 g ai/ha): 100 | Plant response rating (scale of 0 to 100), Soybean ([10]; 16 g ai/ha): 95 | Plant response rating (scale of 0 to 100), Soybean ([10]; 31 g ai/ha): 100 | Plant response rating (scale of 0 to 100), Soybean ([10]; 62 g ai/ha): 100 | Soybean plant response rating ([10]; 125 g ai/ha): 100 | Plant response rating (scale of 0 to 100), Cupgrass, Woolly ([11]; 16 g ai/ha): 55 | Plant response rating (scale of 0 to 100), Cupgrass, Woolly ([11]; 31 g ai/ha): 65 | Plant response rating (scale of 0 to 100), Cupgrass, Woolly ([11]; 62 g ai/ha): 70 | Cupgrass, Woolly plant response rating ([11]; 125 g ai/ha): 70

From patent US8802597B2, “Herbicidal pyrimidines” (E I du Pont de Nemours and Company, priority 2003, dated 2014)
